Results on 72 molecules are retold here after PubChem BioAssay AID179 (DTP/NCI, 2004).

Calls of active or inactive are those of the source.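 How the source made its calls: active means compounds giving half or more protection of infected cells from virus-caused growth loss, again on retest; inactive means the rest.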

The test system of the assay is CEM cells HIV-1 protection, formazan growth assay. Put plainly: NCI AIDS Antiviral Assay. Conditions: for IC50: measured here: growth of uninfected CEM cells. The essentials: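 Human CEM cells, uninfected and HIV-1-infected, exposed to five drug concentrations; growth measured by soluble formazan assay and scored as percent protection from infection, with protecting compounds retested.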

As to `CCOC1C(Br)Cn2c(=O)c3cc4ccccc4cc3c(=O)n2C1C` (stereo not drawn), the EC50 was over 17.8 µM and the IC50 is over 17.8 µM.
`COc1ccc2c(c1)CSCC2=O`: the EC50 is over 513 µM and the IC50 is over 200 µM.
Turning to `CC(C(O)Cc1ccccc1)N(C)N=Nc1ccc([N+](=O)[O-])cc1` (stereo not drawn), the EC50 was over 200 µM and the IC50 was 20 µM.
The matching figures for `O=C(CC(C(=O)c1cccs1)c1ccsc1)c1cccs1` (stereo not drawn): over 200 µM and 40.7 µM.
In the case of `NC1C2CC3CC(C2)CC1(N)C3` (stereo not drawn), the outcome was inactive.
Regarding `CCCC[N+](CCCC)(CCCC)C1=C([O-])C(F)(F)C1=O`, the EC50 is over 200 µM and the half-maximal inhibitory concentration (IC50) was over 200 µM.
As for `N#Cc1c(N)c(C(=O)Nc2ccccc2)n2c1CCCC2`, the EC50 was over 200 µM and the IC50 was over 200 µM.
Consider `Cc1ccc(-c2cc(-c3ccco3)c(C#N)c(=O)n2C2OC(OC(=O)c3ccccc3)C(OC(=O)c3ccccc3)C2OC(=O)c2ccccc2)cc1` (stereo not drawn), for which the EC50 is over 10.2 µM and the 50% inhibitory concentration (IC50) was over 10.2 µM.
Take `CC(NC(=O)OCc1ccccc1)C(=O)NC(C(=O)O)C(C)C` (stereo not drawn): the EC50 is over 776 µM and the IC50 is over 776 µM.
Consider `O=C1OCC(C(=O)c2cccc(O)c2)C1=O` (stereo not drawn), for which the outcome was inactive.
Turning to `O=C(OCCC[P+](c1ccccc1)(c1ccccc1)c1ccccc1)c1ccccc1`, the EC50 was over 200 µM and the IC50 was found to be 3.39 µM.
With `COc1ccc(/C=C2\N=C(SC)N(CN3CCCCC3)C2=O)cc1`, the EC50 was over 200 µM and the IC50 was over 200 µM.
With `Nc1cccnc1NCC1(CO)CCCC1`, the EC50 was over 200 µM and the IC50 is over 200 µM.
With `Clc1ccc(Cl)c(N=Nc2cc3c4c(c2)CCN4CCC3)c1`, the EC50 was over 100 µM and the half-maximal inhibitory concentration (IC50) was over 100 µM.
As to `COc1cc(/C=C/C(=O)c2ccccc2)cc(OC)c1OC`, the EC50 was over 87.1 µM and the 50% inhibitory concentration (IC50) was 20.4 µM.
Consider `COC(=O)[C@H](COC(C)(C)C)NC(=O)N[C@H](C)c1ccccc1`, for which the EC50 is over 200 µM and the half-maximal inhibitory concentration (IC50) is over 200 µM.
In the case of `CCN(CC)c1c(C(=O)/C=C/c2ccc(Cl)cc2)c(-c2ccccc2)nn(C)c1=O`, the EC50 is over 23.4 µM and the IC50 was determined as 4.9 µM.
With `NC(=S)C(=S)N/C=C(/c1ccc(Cl)cc1)S(=O)(=O)Cc1ccc(Cl)cc1`, the outcome was inactive.
Take `Cc1ccc2c(c1)C1(SC(C)C(=O)N1c1ccc(I)cc1)C(=O)N2` (stereo not drawn): the EC50 is over 200 µM and the IC50 is 20 µM.
As to `Cc1ccc(S(=O)(=O)NNC(=O)c2cc(C(=O)NNS(=O)(=O)c3ccc(C)cc3)c(C)nc2C)cc1`, the EC50 is over 200 µM and the IC50 was 162 µM.
The matching figures for `C1CC2=C(C1)[Se]C(=C1Sc3nsnc3S1)[Se]2`: over 200 µM and 195 µM.
Consider `CSC1=Nc2cccnc2Nc2cscc21`, for which the EC50 was over 200 µM and the IC50 came to 1.26 µM.
Consider `COc1ccc(Cl)cc1NC(=O)Nc1cc(C)ccn1`, for which the EC50 is over 200 µM and the half-inhibitory concentration (IC50) is over 200 µM.
Take `Cc1cccc(C)c1NC(=O)C(=O)C(c1ccccc1Cl)S(=O)(=O)Cc1ccccc1Cl` (stereo not drawn): the EC50 is 151 µM and the IC50 was over 200 µM.
The like results for `Cc1c(CO)[n+](=O)c2ccccc2n1[O-]` were, in that order, over 200 µM and over 200 µM.
As for `CCCCCC(CO)C(O)(C(F)(F)F)C(F)(F)F` (stereo not drawn), the EC50 is over 200 µM and the half-maximal inhibitory concentration (IC50) was 70.8 µM.
The matching figures for `O=C(NC(Cl)(C(F)(F)F)C(F)(F)F)c1ccc(F)cc1`: over 200 µM and over 200 µM.
The like results for `O=c1[nH]c(=O)n(C2CC(F)C(CO)O2)cc1COCC(F)(F)F` (stereo not drawn) were, in that order, 0.17 µM and 204 µM.
As for `CC(=O)N1C(=O)C(=O)c2cc(Cl)ccc21`, the result was inactive.
Still for that read-out and setting: the same measure for `C[Si](C)(C)C(Sc1ccccc1)(Sc1ccccc1)Sc1ccccc1`: “inactive”; for `Cc1c2c(C#N)nccc2c(C)c2c1c1ccccc1n2Cc1ccccc1`: “inactive”.
Take `O=C(O)c1ccccc1CC(Cc1ccccc1)C(=O)O` (stereo not drawn): the EC50 is over 200 µM and the IC50 came to 126 µM.
With `CC(=O)Oc1ccc(N2C(=O)C3c4[nH]c5ccccc5c4C4CCC(C(C)(C)C)CC4C3C2=O)cc1` (stereo not drawn), the EC50 was over 200 µM and the 50% inhibitory concentration (IC50) turned out to be 9.77 µM.
With `CO/C=C(\Br)c1ccc2c(c1)OCO2`, the outcome was inactive.
For the molecule `CC(=O)O[C@H]1[C@H](OC(C)=O)[C@@H](CN=[N+]=[N-])OCO[C@@H]1CN=[N+]=[N-]`, the outcome was inactive.
Take `O=C1OC2C(O)OC3COC(=O)c4cc(O)c(O)c(O)c4-c4c(O)c(O)c5oc(=O)c6c(c(O)c(O)c7oc(=O)c4c5c76)-c4c(cc(O)c(O)c4O)C(=O)OC3C2OC(=O)c2cc(O)c(O)c(O)c2-c2c1cc(O)c(O)c2O` (stereo not drawn): the concentration for a half-maximal effect (EC50) was 0.724 µM and the concentration for half-maximal inhibition (IC50) amounted to 21.4 µM.
The matching figures for `COc1ccc(/C=C2\SC(=S)N(/C=C3\C(=O)N(c4ccccc4)N=C3C)C2=O)cc1OC`: over 200 µM and 28.2 µM.
For the molecule `O=c1c2cc(Br)ccc2nc(-c2ccccc2)n1NCC1(O)OCC(O)C(O)C1O` (stereo not drawn), the result was inactive.
With `O=C(CC(c1ccccc1)C(C(=O)c1ccncc1)C(CC(=O)c1ccncc1)c1ccccc1)c1ccncc1` (stereo not drawn), the EC50 was over 200 µM and the IC50 was over 200 µM.
As to `CN(C)c1ccc(C2CC(c3ccc4ccccc4c3O)=NN2)cc1` (stereo not drawn), the EC50 was over 200 µM and the 50% inhibitory concentration (IC50) was found to be 60.3 µM.
Take `COC(=O)[C@@H]1N2C(=S)N(c3ccccc3)C(=O)[C@H]2SC1(C)C`: the EC50 was over 200 µM and the IC50 is over 200 µM.
Take `CCCNC(=S)N/N=C/c1cccc(C)n1`: the EC50 was over 200 µM and the IC50 amounted to 11 µM.
The like results for `CC1OC(OC23C(=O)CC(C)(O)CC2(O)C=CC2=C3C(=O)c3ccc(C4CC(OC5CCC(OC6CC(O)C(O)C(C)O6)C(C)O5)C(O)C(C)O4)c(O)c3C2=O)CCC1O` (stereo not drawn) were, in that order, over 295 µM and 4.9 µM.
The matching figures for `CCCCc1ccc(C(N)=O)nc1`: over 200 µM and over 200 µM.
For `CO/C=C/CCCO`, the EC50 was over 2140 µM and the IC50 is over 2140 µM.
Consider `Cc1ccc(/C=C2/N=C(N/N=C\C(O)C(O)C(O)CO)NC2=O)cc1` (stereo not drawn), for which the EC50 was over 200 µM, the outcome was inactive and the 50% inhibitory concentration (IC50) is 110 µM.
Turning to `CC(C)C(O)S(=O)(=O)O` (stereo not drawn), the EC50 is over 200 µM and the IC50 is over 200 µM.
In the case of `COC(=O)N1N=C(c2ccccc2)C1c1ccccc1` (stereo not drawn), the EC50 is over 200 µM and the IC50 is 38 µM.
Consider `O=P1(O)C=CC2(CCCC2)O1`, for which the EC50 was over 200 µM and the concentration for half-maximal inhibition (IC50) is over 200 µM.
In the case of `CCOC(=O)c1sc2[n+](c1C)C(=O)/C(=C/c1ccccc1Cl)S2`, the EC50 is over 200 µM and the concentration for half-maximal inhibition (IC50) is 3.39 µM.
The matching figures for `O=C1CC(C2(O)C(=O)Nc3ccc([N+](=O)[O-])cc32)c2ccccc21` (stereo not drawn): over 55 µM and over 55 µM.
For `COc1cccc2c(Nc3ccc(S(=O)(=O)Nc4ncccn4)cc3)c3ccc([N+](=O)[O-])cc3nc12`, the EC50 is over 100 µM and the IC50 is over 100 µM.
As to `COC(=O)C(Cc1nc2ccc(Cl)cc2[nH]c1=O)C(=O)C(=O)Nc1cc(C)ccc1C` (stereo not drawn), the EC50 was over 214 µM and the IC50 was over 214 µM.
Consider `O=[N+]([O-])c1cc(-c2ccc([As](=O)(O)O)cc2)ccc1[As](=O)(O)O`, for which the EC50 was over 200 µM and the IC50 was over 200 µM.
Take `COc1ccc2nc(NC(=O)C(=O)C(C#N)c3ccc([N+](=O)[O-])cc3)sc2c1` (stereo not drawn): the result was inactive.
`COc1cc(C(=O)/C=C/c2ccc(OCC#N)cc2)cc(OC)c1OC`: the EC50 was over 200 µM and the 50% inhibitory concentration (IC50) is 29.5 µM.
On to `O=C1c2cccnc2S(=O)(=O)N1c1ccc(Br)cc1`, for which the EC50 is over 200 µM and the concentration for half-maximal inhibition (IC50) was 74.1 µM.
The matching figures for `CC1C(c2cc(C(C)(C)C)c(O)c(C(C)(C)C)c2)c2cc3c(cc2OC1N1CCOCC1)OCO3` (stereo not drawn): over 200 µM and over 200 µM.
As to `C/C(=N/NC(=S)Nc1cccc(C)c1)c1ccccn1`, the EC50 was over 0.2 µM and the half-inhibitory concentration (IC50) was 0.0955 µM.
Consider `COc1ccc(N=Cc2ccc(N(CCC#N)S(=O)(=O)c3ccccc3)cc2)cc1`, for which the EC50 was over 162 µM and the IC50 was over 162 µM.
With `CCCC(C)SP(=S)(SC(C)CCC)SC(C)CCC` (stereo not drawn), the EC50 is over 200 µM and the half-maximal inhibitory concentration (IC50) was over 200 µM.
With `N#Cc1c(N)c(C(=O)Nc2ccc(Cl)cc2)n2c1CCC2`, the EC50 was over 200 µM and the 50% inhibitory concentration (IC50) is over 200 µM.
As to `O=C(O)c1nc(Cl)c(Cl)[nH]c1=O`, the EC50 is over 200 µM and the concentration for half-maximal inhibition (IC50) is 55 µM.
The like results for `CC1CC2Oc3ccc(Cl)cc3C(=O)N2O1` (stereo not drawn) were, in that order, over 200 µM and over 200 µM.
`CCC(Sc1cc(Cl)c(C)cc1S(=O)(=O)Nc1nc(N)nc(N(C)C)n1)C(=O)O` (stereo not drawn): the result was inactive.
Still for that read-out and setting: for `Nc1ccc2cc(S(=O)(=O)O)cc(O)c2c1N=Nc1ccc(NC(=O)c2ccc(C(=O)Nc3ccc(N=Nc4c(N)ccc5cc(S(=O)(=O)O)cc(O)c45)c(S(=O)(=O)O)c3)cc2)cc1S(=O)(=O)O` the value was “active”.
As for `O=C(/C=C/c1ccccc1)CSc1ncn[nH]1`, the EC50 is over 200 µM and the IC50 was 12 µM.
As for `Cc1cc(Br)cc(C)c1NC(=O)C(=O)C(C(=O)c1ccncc1)C1OC(=O)c2ccccc21` (stereo not drawn), the EC50 is over 339 µM and the IC50 was over 339 µM.
On to `CN(C(=O)Cc1ccccc1)n1cnn(CC(=O)OC(C)(C)C)c1=S`, for which the EC50 was over 200 µM and the 50% inhibitory concentration (IC50) is over 200 µM.
Consider `C=C1CN=C(Nc2ccc(Cl)cc2)S1`, for which the EC50 was over 200 µM and the concentration for half-maximal inhibition (IC50) came to 75.9 µM.
The like results for `N#CC1=C(c2ccccc2)C(=C2Nc3ccccc3N2)C2S/C(=C\c3ccccc3)C(=O)N2C1=N` (stereo not drawn) were, in that order, over 2.19 µM and over 2.19 µM.
Regarding `CN(C)c1ccc(/C=C2\C=Cc3ccccc32)cc1Br`, the EC50 is over 8.32 µM and the IC50 was over 8.32 µM.

For orientation: EC50 means the concentration giving half of the maximal effect. As a reminder, the IC50 is the concentration that inhibits the measured activity by half.
